Key:
Type in all cases: in vivo
Golden Delicious apples = assay: Comparative analysis of 1-MCP treatments of apples applied with the wand device; conditions: for Fruit firmness of apples relative to SmartFresh and control apples: 65 days at about 1° C. + 7 days room temperature
Protocol: This experiment was conducted to test the effect of different application methods of 1-MCP treatment (i.e., Harvista AFx701) on Golden Delicious apples in bins. Apples were treated with two different formulations of the 1-MCP treatment, including a formulation comprising 1) 20 grams of 1-MCP and 2 liters of water, which was applied in 10 seconds and 2) 60 grams of 1-MCP and 6 liters of water, which was applied in 30 seconds. The 1-MCP treatment formulations were prepared and applied to apples using the wand device, and compared to apples that had been treated with SmartFresh or no 1-MCP at all (control).
Apples were stored for 65 days in cold air at about 1° C. temperature, prior to being stressed for 7 days at room temperature. Replicates of 25 fruit were sampled from each layer of each fruit bin to analyze fruit firmness (in pounds, lbs) and internal ethylene concentration (ppm). Data were analyzed on a whole bin basis using all replicates from each layer.

Bartlett pears = assay: Liquid 1-MCP drench treatment on pears; design: key to Firmness, statistical significance between control and treated bins of pears by layers / Ethylene Content, statistical significance between control and treated bins of pears by layers / Skin Color, statistical significance between control and treated bins of pears by layers: Lx: layers that contained fruit that were not statistically significantly different from control; All: fruit tested in all layers was statistically significantly different from control; None: no layers were identified that had statistical significance from control
Protocol: Bins of freshly harvested Bartlett pears were sprayed with 0 gal (control), 1.0 gal, 2.0 gal, or 3.0 gal of Harvista AFxRD038 formulation. The AFxRD038 liquid 1-methylcyclopropene (1-MCP) formulation was made of 3 gal of water, 36 g of AFxRD038, 113 ml of HiSupreme Spray Oil, and 5.63 ml of Silwett L-77 surfactant.
A CO2 backpack sprayer was used to apply the different volumes of 1-MCP treatment within an initial time period of a few days (e.g., about 2-3 days). The formulation was applied to bins containing a total of approximately 900 lbs of pears. Each bin comprised 7-9 layers depending on the size of the pears, with layer 1 being the top layer and layers 7-9 being the bottom layer. A control bin having 9 layers of pears was not sprayed with 1-MCP treatment.
The bins of pears were allowed to air dry outside, and were then stored in regular cold air (i.e., about 4° C.) for a second time period of about two days. The fruit was then moved to a controlled atmosphere storage having a temperature of 31° F. for a third time period of about 45 days. Upon removal of the fruit from storage in the bins, the fruit was then placed in a warm room having a temperature of about 68° F. for a fourth time period of about six days.
On the sixth day of the fourth time period of warm room exposure, each individual bin of fruit was sampled in a uniform fashion. Uniform sampling was performed by removing about 250 pears from the top of each bin, layer-by-layer. Each layer of about 250 fruit was stored in plastic bins for further analysis during a fifth time period. Day 6 evaluation occurred on the same day the layers were removed from the bin. Four days later (Day 10), another series of fruit layers were analyzed. Four more days later (Day 14), the last set of fruit from the bins were analyzed.
On days 6, 10, and 14, a subset of fruit from each layer of each bin was analyzed for firmness, ethylene content, and fruit skin color. Quality measurements were taken on an individual layer of fruit within each treated bin to establish the effectiveness and consistency of the treatments from top to bottom of each fruit bin (see FIGS. 3-5). For example, firmness of the pears was measured by peeling the pears, and measuring the middle pulp with an 8 mm tip.

Cantaloupe melons [1] = assay: Comparative liquid 1-MCP spray treatment on melons, stored about 9 days
Protocol: This experiment was conducted to test the effect of 1-MCP spray treatment on Cantaloupe melons as compared to SmartFresh treatment. This experiment was performed exactly as detailed above in Example 1 for Bartlett pears, but with a few noted exceptions described here. The bins of melons were allowed to air dry outside, and were then stored in regular cold air (i.e., about 36° F.) for a second time period of about 9 days. The melons were then moved to a regular atmosphere storage having a temperature of about 70° F. for a third time period of about 2, 4, or 6 more days. Upon removal of the fruit from storage in the bins, the fruit were then analyzed for firmness. Firmness of the melons was measured by cutting the melons in half, and measuring the middle pulp with an 8 mm tip.

Cantaloupe melons [2] = assay: Comparative liquid 1-MCP spray treatment on melons, stored about 15 days
Protocol: This experiment was conducted to test the effect of 1-MCP spray treatment on Cantaloupe melons as compared to SmartFresh treatment. Bins containing 9 kilograms each of freshly harvested Cantaloupe melons were sprayed four times using a dual-liquid sprayer comprising the Harvista AFx701 formulation (see FIG. 10). Each spray of the AFx701 liquid 1-methylcyclopropene (1-MCP) formulation comprised 83.5 mg of AFx701 and 608 mg of water. Thus, a total amount of 1.67 mg of 1-MCP active ingredient and 2.43 g of water was applied to each bin of melons, which equates to 0.185 mg of 1-MCP per kg of melons. The 1-MCP treatment formulations were prepared and applied to […] using a sprayer, and compared to apples that had been treated with SmartFresh or no 1-MCP at all (control).
The bins of melons were allowed to air dry outside, and were then stored in regular cold air (i.e., about 36° F.) for a second time period of about 15 days. The melons were then moved to a regular atmosphere storage having a temperature of about 70° F. for a third time period of about 2, 4, or 6 more days. Upon removal of the fruit from storage in the bins, the fruit were then analyzed for firmness. Firmness of the melons was measured by cutting the melons in half, and measuring the middle pulp with an 8 mm tip.
Day 15 evaluation occurred on the same day the fruit were removed from storage in the bin. Two days later (Day 15+2), another series of fruit were analyzed. Two more days later (Day 15+4), an additional set of fruit were removed and analyzed. Finally, the last set of fruit from the bins was analyzed two days later (Day 15+6). Quality measurements were taken on individual melons randomly selected from different treated bins and different positions within each treated bin (e.g., the edge and/or the center of the bin) to establish the effectiveness and consistency of the treatments (see FIG. 11).

Red Delicious apples = assay: Liquid 1-MCP drench treatment on apples; design: key to Ethylene Content, statistical significance between control and treated bins of apples by layers: Lx: layers that contained fruit that were not statistically significantly different from control; All: fruit tested in all layers was statistically significantly different from control; None: no layers were identified that had statistical significance from control; conditions: for Firmness of apples compared with unsprayed control apples: most apples
Protocol: This experiment was conducted to test the effect of 1-MCP treatment on Red Delicious apples. This experiment was performed exactly as detailed above in Example 1 for Bartlett pears, but with a few noted exceptions described here. Specifically, Red Delicious apples were treated with a 1-MCP treatment comprising 31 g of AFxRD038. The apples were treated with 0.5 gal, 1.0 gal, and 2.0 gal volumes of the 1-MCP treatment, which were applied to bins of apples comprised in 9-10 layers depending on the size of the apples. A control bin having 10 layers of apples was not sprayed with 1-MCP treatment. The apples were stored for a third time period at room temperature for 33 days. The apples were analyzed for firmness and ethylene content at warm day 7 and 14 of the fifth time period.

[3] = Treatment 2: 60 grams of 1-MCP and 6 liters of water, 30 seconds, wand device
[4] = spray, 9 days cold storage, all days

CC1=CC1 [1-MCP, 1-Methylcyclopropene]
Control and/or inhibition of fruit ripening in apples (Golden Delicious apples; 1-MCP treatment applied with a wand device): effective to control and/or inhibit fruit ripening in apples
Fruit firmness of apples relative to SmartFresh and control apples (Golden Delicious apples; Treatment 1: 20 grams of 1-MCP and 2 liters of water, 10 seconds, wand device): highest
Internal ethylene concentration of apples compared with Treatment 1 or control (Golden Delicious apples; [3]): significantly less ethylene concentration
Fruit firmness of apples relative to SmartFresh and control apples (Golden Delicious apples; [3]): highest
Firmness of pears compared with unsprayed control fruit (Bartlett pears; 1 gal, 2 gal or 3 gal, layers 1-9, warm days 6, 10 and 14): significantly better firmness
Firmness, statistical significance between control and treated bins of pears by layers (Bartlett pears; WRD 6, 1 Gal): All
Skin Color, statistical significance between control and treated bins of pears by layers (Bartlett pears; WRD 6, 1 Gal): All
Firmness, statistical significance between control and treated bins of pears by layers (Bartlett pears; WRD 6, 2 Gal): All
Skin Color, statistical significance between control and treated bins of pears by layers (Bartlett pears; WRD 6, 2 Gal): All
Firmness, statistical significance between control and treated bins of pears by layers (Bartlett pears; WRD 6, 3 Gal): All
Skin Color, statistical significance between control and treated bins of pears by layers (Bartlett pears; WRD 6, 3 Gal): All
Ethylene Content, statistical significance between control and treated bins of pears by layers (Bartlett pears; WRD 10, 1 Gal): All
Firmness, statistical significance between control and treated bins of pears by layers (Bartlett pears; WRD 10, 1 Gal): All
Skin Color, statistical significance between control and treated bins of pears by layers (Bartlett pears; WRD 10, 1 Gal): All
Firmness, statistical significance between control and treated bins of pears by layers (Bartlett pears; WRD 10, 2 Gal): All
Skin Color, statistical significance between control and treated bins of pears by layers (Bartlett pears; WRD 10, 2 Gal): All
Firmness, statistical significance between control and treated bins of pears by layers (Bartlett pears; WRD 10, 3 Gal): All
Skin Color, statistical significance between control and treated bins of pears by layers (Bartlett pears; WRD 10, 3 Gal): All
Firmness, statistical significance between control and treated bins of pears by layers (Bartlett pears; WRD 14, 1 Gal): All
Skin Color, statistical significance between control and treated bins of pears by layers (Bartlett pears; WRD 14, 1 Gal): None
Firmness, statistical significance between control and treated bins of pears by layers (Bartlett pears; WRD 14, 2 Gal): All
Skin Color, statistical significance between control and treated bins of pears by layers (Bartlett pears; WRD 14, 2 Gal): None
Firmness, statistical significance between control and treated bins of pears by layers (Bartlett pears; WRD 14, 3 Gal): All
Skin Color, statistical significance between control and treated bins of pears by layers (Bartlett pears; WRD 14, 3 Gal): None
Control and/or inhibition of fruit ripening in pears (Bartlett pears; as little as 1 gal of 1-MCP treatment): effective to control and/or inhibit fruit ripening in pears
Fruit color of pears compared with unsprayed control fruit (Bartlett pears; layers 1-9, days 6 and 10): significantly less fruit color
Ethylene concentration of pears compared with unsprayed control fruit (Bartlett pears; layers 1-9, warm days 6, 10 and 14): significantly lower ethylene concentrations
Fruit skin color of pears compared with control (Bartlett pears; warm day 14): none of the layers showed a significant difference
Firmness of melons compared with SmartFresh-treated melons (Cantaloupe melons [1]; Day 9+4): even higher
Control and/or inhibition of fruit ripening in melons (Cantaloupe melons [1]; spray, 9 days cold storage): effective to control and/or inhibit fruit ripening in melons
Firmness of melons compared with SmartFresh-treated fruit (Cantaloupe melons [1]; [4]): statistically the same as SmartFresh treated fruit
Firmness of melons compared with control (Cantaloupe melons [1]; [4]): significant differences from the control
Control and/or inhibition of fruit ripening in melons (Cantaloupe melons [2]; 15 days cold storage): effective to control and/or inhibit fruit ripening in melons
Firmness of melons compared with control fruit (Cantaloupe melons [2]; Day 15, 15+2, 15+4, 15+6 (all days)): significant differences from the control fruit
Firmness of melons compared with SmartFresh-treated melons (Cantaloupe melons [2]; all days): relatively comparable to melons treated with SmartFresh
Ethylene Content, statistical significance between control and treated bins of apples by layers (Red Delicious apples; WRD 7, 0.5 Gal): All
Ethylene Content, statistical significance between control and treated bins of apples by layers (Red Delicious apples; WRD 7, 1 Gal): All
Ethylene Content, statistical significance between control and treated bins of apples by layers (Red Delicious apples; WRD 7, 2 Gal): All
Ethylene Content, statistical significance between control and treated bins of apples by layers (Red Delicious apples; WRD 14, 2 Gal): All
Control and/or inhibition of fruit ripening in apples (Red Delicious apples; as little as 0.5 gal of 1-MCP treatment): effective to control and/or inhibit fruit ripening in apples
Firmness of apples compared with unsprayed control apples (Red Delicious apples; day 14, except layers 2, 5, 8 and 10): significantly better firmness
Ethylene concentration of apples compared with unsprayed control apples (Red Delicious apples; warm day 7, layers 1-10): significantly lower ethylene concentrations
Firmness of apples compared with unsprayed control apples (Red Delicious apples; warm day 7, except layers 5, 8 and 9): significantly better firmness
